Measurements: publication PMC9820118, “Betulin Acid Ester Derivatives Inhibit Cancer Cell Growth by Inducing Apoptosis through Caspase Cascade Activation: A Comprehensive In Vitro and In Silico Study” (International Journal of Molecular Sciences, 2022)
Where two headings read alike, the source gives them in different places.

Columns and labels:
[1] = in vitro; details: mouse
Method: (§1) The in vitro antiproliferative activity tests have been conducted against four human cancer cell lines: MV4-11 biphenotypic B myelomonocytic leukemia cell line, A549 lung carcinoma cell line, MCF-7 breast carcinoma cell line, PC-3 prostate carcinoma cell line and one normal BALB/3T3 mouse fibroblast cell line. […] All tested compounds were dissolved in DMSO and diluted with a culture medium to a desired concentration. […] Cell viability, after 72 h incubation of the cells with tested compounds, was determined using tetrazolinum dye MTT (for MV4-11 cells) or sulforhodamine B (SRB test, for MCF-7, A549, PC-3, BALB/3T3 cells) colorimetric assays.
(§2) Human biphenotypic B myelomonocytic leukemia MV4-11, murine normal fibroblast BALB/3T3 cells were obtained from the American Type Culture Collection (USA); and human lung carcinoma A549, human breast cancer MCF-7 and human prostate adenocarcinoma PC-3 were obtained from the European Collection of Authenticated Cell Cultures (UK).
(§3) MV4-11 and PC-3 cells were cultured in RPMI 1640 medium (HIIET PAS, Poland) with 1.0 mM sodium pyruvate (only MV4-11) and 10% fetal bovine serum (FBS) (all from Merck, Darmstadt, Germany). A549 cells were cultured in RPMI 1640 + Opti-MEM (1:1) ((HIIET PAS, Poland and Gibco, UK) supplemented with 5% fetal bovine serum (Merck, Darmstadt, Germany). The MCF-7 cells were cultured in Eagle medium (HIIET PAS, Poland) supplemented with 8 mg/mL of insulin and 1% of MEM NON-Essential amino acid (all Merck, Darmstadt, Germany). Normal fibroblasts BALB/3T3 cells were cultured in DMEM medium (Gibco, UK) supplemented with 10% fetal bovine serum and 1.0 mM sodium pyruvate (all from Merck, Darmstadt, Germany). All culture media were supplemented with 2 mM L-glutamine (Merck, Darmstadt, Germany), 100 units/ml penicillin, (Polfa Tarchomin S.A., Poland) and 100 µg/mL streptomycin (Merck, Darmstadt, Germany). All cell lines were grown at 37 °C in a 5% CO2 humidified atmosphere.
(§4) The solutions of the tested compounds were prepared by dissolving the substances in DMSO to the desired concentration (25 mM). Then, the tested compounds were diluted in a culture medium to reach the final concentrations. Before addition of the tested compounds (24 h prior), the cells were plated in 96-well plates (Sarstedt, Germany) at a density of 1 × 10^4, 0.75 × 10^4 (MCF-7) or 0.5 × 10^4 (A549) cells per well. The assay was performed after 72 h of exposure to 100, 10, 1 and 0.1 µM concentration of the tested agents. […] The SRB method determined the amount of cellular proteins. The concentration of the colorimetric probe (formazan in MTT or sulforhodamine B in SRB method) was determined by an optical density measurement using a standard microplate reader for 96-well plates. After optical density measurement, using the data of the mean absorbances of control cells (AbCC), the absorbances of cells treated by the tested compound (AbTr) (for each concentration separately) and the absorbance of the cultured medium (AbCM) the % of cell proliferation inhibition was calculated according to the following formula: % inh. cells proliferation=100−AbTr−AbCM/AbCC−AbCM×100
(§5) From the obtained proliferation inhibition values, effect-concentration curves of the compound used were plotted. […] IC50 values were calculated for each experiment separately using the Prolab-3 system based on Cheburator 0.4 software [36] and mean values (±SD) are presented. Each compound in each concentration was tested in triplicate in a single experiment, which was repeated 3–5 times.

[2] = system: MV4-11 cells; assay: Antiproliferative activity, MTT assay, MV4-11 leukemia cells; format: cell-based, human; details: for IC50: 72 h incubation, MTT, read-out: Growth inhibition IC50, leukemia cell line MV4-11; for Calculated Selectivity Index SI, MV4-11: IC50 BALB/3T3 / IC50 MV4-11
Method: as §1, §2, §3, §4, §5

[3] = system: MCF-7 cell line; assay: Antiproliferative activity, SRB assay, MCF-7 breast carcinoma cells; details: for IC50: Homo sapiens, MCF7, 72 h, read-out: Cytotoxicity IC50 against MCF-7 cell line; for Calculated Selectivity Index SI, MCF-7: IC50 BALB/3T3 / IC50 MCF-7
Method: as §1, §2, §3, §4, §5

[4] = system: A549 cell line; assay: Antiproliferative activity, SRB assay, A549 lung carcinoma cells; details: for IC50: Homo sapiens, A549, 72 h, read-out: Cytotoxicity IC50 against A549 cell line; for Calculated Selectivity Index SI, A549: IC50 BALB/3T3 / IC50 A549
[5] = Experimental lipophilicity by RP-TLC; details: for RM0: RP-TLC, RP-18 F254S, acetone / Tris buffer pH 7.4, extrapolated to zero acetone
Method: The retention mechanism in the RP-TLC method is based on the partition of substances between two phases. Silica gel (RP-18 F254S plates) was used as the hydrophobic stationary phase. In contrast, the hydrophilic mobile phase was a binary mixture of acetone and an aqueous solution of TRIS buffer.
Chromatographic analysis by RP-TLC was performed an aluminum backed silica gel RP-18 F254S
phenylanthracene] and tested betulin derivatives were dissolved in chloroform to obtain a
concentration of 2 mg/mL. The prepared solutions were spotted on the plates in the amount of 2 μL.
the next step, the chromatographic chambers were saturated 30 min of the appropriate mobile phases
consisting of a mixture of acetone (Merck, Darmstadt, Germany) and aqueous solution of buffer Tris
[(tris-hydroxymethyl)aminomethane] (Fluka, Loughborough, 0.2 M, pH 7.4). The amount of acetone in
the mobile phase were in the range 60-90% in 5% increments. The chromatograms were developed for
each compound in triplicate at room temperature. The spots of betulin derivatives were visualized by
spraying the plates with the mixture of ethanol and concentrated sulfuric acid (10:1, v/v) and heating
The retardation factor (Rf) were calculated according to the equation below:
(a-the distance from the start line to the spot center, b-the distance from the start line to the mobile
The RM values were calculated by the Bate-Smith and Westall equation:
The RM0 parameters were obtained by extrapolating on the acetone content to zero, according to the
Soczewiński-Wachtmeister equation:
(C-the percentage concentration of acetone in the mobile phase, b-the slope of the regression plot).
The calibration curve was determined using eight reference compounds.
compounds were determined under the same conditions as for betulin derivatives (Table S1).

[6] = system: PC-3 cell line; assay: Antiproliferative activity, SRB assay, PC-3 prostate carcinoma cells; details: for IC50: Homo sapiens, PC-3, 72 h, read-out: Cytotoxicity IC50 against PC-3 cell line; for Calculated Selectivity Index SI, PC-3: IC50 BALB/3T3 / IC50 PC-3
Method: as §1, §2, §3, §4, §5

| SMILES | IC50 at 72 h [1] [µM] | IC50 ([2]; Homo sapiens, MV4-11, 72 h) [µM] | Calculated Selectivity Index SI, MV4-11 [2] | IC50 [3] [µM] | Calculated Selectivity Index SI, MCF-7 [3] | IC50 [4] [µM] | Calculated Selectivity Index SI, A549 [4] | RM0 [5] | Antiproliferative Activity, PC-3 ([6]; +/− summary, IC50 vs betulin 1) | IC50 [6] [µM] | Calculated Selectivity Index SI, PC-3 [6] | IC50 [2] [µM] | log PTLC ([5]; from RM0 by calibration curve with eight reference compounds) |
| --- | --- | --- | --- | --- | --- | --- | --- | --- | --- | --- | --- | --- | --- |
| C#CCNC(=O)CCC(=O)OC[C@]12CC[C@@H](C(=C)C)C1C1CCC3[C@@]4(C)CC[C@H](O)C(C)(C)C4CC[C@@]3(C)[C@]1(C)CC2 (stereo partly drawn) [2a] | 3.1 | 2.03 | 1.5 | 29.8 | 0.1 | 19.2 | 0.2 | 4.863 | + | 4.47 | 0.7 | – | – |
| C#CC1(NC(=O)CCC(=O)OC[C@]23CC[C@@H](C(=C)C)C2C2CCC4[C@@]5(C)CC[C@H](O)C(C)(C)C5CC[C@@]4(C)[C@]2(C)CC3)CCCCC1 (stereo partly drawn) [2e] | – | 52.5 | – | – | – | – | – | 6.027 | – | – | – | – | – |
| C#CCNC(=O)C(C)=CC(=O)OCC12CCC(C(=C)C)C1C1CCC3C4(C)CCC(O)C(C)(C)C4CCC3(C)C1(C)CC2 (stereo not drawn) [3a] | – | 12.5 | – | – | – | – | – | 5.326 | – | 15.3 | – | – | – |
| C=C(C)C1CCC2(COC(=O)C=C(C)C(=O)N3CCOCC3)CCC3(C)C(CCC4C5(C)CCC(O)C(C)(C)C5CCC43C)C12 (stereo not drawn) [3b] | 24.7 | < 10 | 2.8 | 12.3 | 2.0 | 7.42 | 3.3 | 5.086 | – | 24.8 | 1.0 | 8.9 | – |
| C=C(C)C1CCC2(COC(=O)C=C(C)C(=O)N3CCSCC3)CCC3(C)C(CCC4C5(C)CCC(O)C(C)(C)C5CCC43C)C12 (stereo not drawn) [3d] | > 50 | – | 11.8 | 34 | 1.5 | 6.78 | 7.4 | 5.711 | – | 46.1 | 1.1 | – | – |
| C#CC1(NC(=O)C(C)=CC(=O)OCC23CCC(C(=C)C)C2C2CCC4C5(C)CCC(O)C(C)(C)C5CCC4(C)C2(C)CC3)CCCCC1 (stereo not drawn) [3e] | – | 22.2 | – | – | – | – | – | 6.098 | – | – | – | – | – |
| CC(=O)c1ccc(Br)cc1 [4-bromoacetophenone, reference compound] | – | – | – | – | – | – | – | 1.88 | – | – | – | – | – |
| C#CCNC(=O)CCCC(=O)OC[C@]12CC[C@@H](C(=C)C)C1C1CCC3[C@@]4(C)CC[C@H](O)C(C)(C)C4CC[C@@]3(C)[C@]1(C)CC2 (stereo partly drawn) [4a] | 5.02 | – | 1.2 | 50 | 0.1 | 29.1 | 0.2 | 5.158 | – | – | 0.3 | – | – |
| C=C(C)[C@@H]1CC[C@]2(COC(=O)CCCC(=O)N3CCOCC3)CC[C@]3(C)C(CCC4[C@@]5(C)CC[C@H](O)C(C)(C)C5CC[C@]43C)C12 (stereo partly drawn) [4b] | 36.8 | < 10 | 5.9 | 21.6 | 1.7 | 8.47 | 4.3 | 4.961 | – | 22.7 | 1.6 | 6.27 | – |
| C=C(C)[C@@H]1CC[C@]2(COC(=O)CCCC(=O)N3CCSCC3)CC[C@]3(C)C(CCC4[C@@]5(C)CC[C@H](O)C(C)(C)C5CC[C@]43C)C12 (stereo partly drawn) [4d] | > 50 | < 10 | 7.1 | 50 | 1.0 | 40.2 | 1.2 | 5.008 | – | 50 | 1.0 | 7.04 | – |
| C#CC1(NC(=O)CCCC(=O)OC[C@]23CC[C@@H](C(=C)C)C2C2CCC4[C@@]5(C)CC[C@H](O)C(C)(C)C5CC[C@@]4(C)[C@]2(C)CC3)CCCCC1 (stereo partly drawn) [4e] | – | 22 | – | – | – | – | – | 5.920 | – | – | – | – | – |
| C#CCNC(=O)CCCCCCCCCC(=O)OC[C@]12CC[C@@H](C(=C)C)C1C1CCC3[C@@]4(C)CC[C@H](O)C(C)(C)C4CC[C@@]3(C)[C@]1(C)CC2 (stereo partly drawn) [5a] | – | 21 | – | – | – | – | – | 5.998 | – | – | – | – | – |
| C=C(C)[C@@H]1CC[C@]2(COC(=O)CCCCCCCCCC(=O)N3CCSCC3)CC[C@]3(C)C(CCC4[C@@]5(C)CC[C@H](O)C(C)(C)C5CC[C@]43C)C12 (stereo partly drawn) [5d] | – | 43.6 | – | – | – | – | – | 5.044 | – | – | – | – | – |
| C#CC1(NC(=O)CCCCCCCCCC(=O)OC[C@]23CC[C@@H](C(=C)C)C2C2CCC4[C@@]5(C)CC[C@H](O)C(C)(C)C5CC[C@@]4(C)[C@]2(C)CC3)CCCCC1 (stereo partly drawn) [5e] | – | > 100 | – | – | – | – | – | 6.093 | – | – | – | – | – |
| C#CCNC(=O)c1ccccc1C(=O)OC[C@]12CC[C@@H](C(=C)C)C1C1CCC3[C@@]4(C)CC[C@H](O)C(C)(C)C4CC[C@@]3(C)[C@]1(C)CC2 (stereo partly drawn) [6a] | – | 24 | – | – | – | – | – | 6.016 | – | – | – | – | 8.332 |
| C=C(C)[C@@H]1CC[C@]2(COC(=O)c3ccccc3C(=O)N3CCOCC3)CC[C@]3(C)C(CCC4[C@@]5(C)CC[C@H](O)C(C)(C)C5CC[C@]43C)C12 (stereo partly drawn) [6b] | – | 15 | – | – | – | – | – | 5.979 | – | – | – | – | – |
| C=C(C)[C@@H]1CC[C@]2(COC(=O)c3ccccc3C(=O)N3CCCCC3)CC[C@]3(C)C(CCC4[C@@]5(C)CC[C@H](O)C(C)(C)C5CC[C@]43C)C12 (stereo partly drawn) [6c] | – | 100 | – | – | – | – | – | 5.875 | – | – | – | – | – |
